Experimental findings from patent US20050164951A1, “Inhibitors for the soluble epoxide hydrolase” (The Regents of the University of California, priority 2003, published 2005) are described below.

Broadly, the IC90 is the concentration at which the effect reaches the 90% level. Broadly, the IC50 is the point on the concentration scale where inhibition reaches its midpoint.

Like-named read-outs stand apart in the source and are kept apart here.

For one assay, the target named is T1, mouse sEH (Mus musculus, UniProt P34914).
T1 construct: made in house; host or cells: baculovirus expression system
T1 sequence (P34914 1-554): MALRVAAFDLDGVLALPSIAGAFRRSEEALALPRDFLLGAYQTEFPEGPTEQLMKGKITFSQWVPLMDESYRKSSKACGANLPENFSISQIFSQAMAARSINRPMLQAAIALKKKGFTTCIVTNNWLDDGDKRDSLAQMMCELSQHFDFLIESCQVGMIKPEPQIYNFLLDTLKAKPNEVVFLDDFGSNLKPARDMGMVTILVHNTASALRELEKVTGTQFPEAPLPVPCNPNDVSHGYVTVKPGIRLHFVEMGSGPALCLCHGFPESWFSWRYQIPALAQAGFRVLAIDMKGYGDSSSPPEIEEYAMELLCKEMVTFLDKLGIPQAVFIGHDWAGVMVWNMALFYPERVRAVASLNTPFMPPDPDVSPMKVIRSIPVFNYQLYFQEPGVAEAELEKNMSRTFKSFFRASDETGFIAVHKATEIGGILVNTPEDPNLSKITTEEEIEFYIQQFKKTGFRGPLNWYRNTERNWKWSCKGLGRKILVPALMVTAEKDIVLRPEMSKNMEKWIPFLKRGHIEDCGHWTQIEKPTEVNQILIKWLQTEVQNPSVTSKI
Description: Inhibition of recombinant mouse sEH, IC50 assay with 4-nitrophenyl-trans-2,3-epoxy-3-phenylpropyl carbonate as substrate. Type of assay: biochemical. The protocol: (§1) Assays were performed in triplicate. […] The curve was generated from at least three separate runs, each in triplicate, to obtain the standard deviation (SD) given in Table 1 thru Table 4.

A further assay has as its target T2, human sEH (Homo sapiens, UniProt P34913).
T2 construct: made in house; host or cells: baculovirus expression system
T2 sequence (P34913 1-555): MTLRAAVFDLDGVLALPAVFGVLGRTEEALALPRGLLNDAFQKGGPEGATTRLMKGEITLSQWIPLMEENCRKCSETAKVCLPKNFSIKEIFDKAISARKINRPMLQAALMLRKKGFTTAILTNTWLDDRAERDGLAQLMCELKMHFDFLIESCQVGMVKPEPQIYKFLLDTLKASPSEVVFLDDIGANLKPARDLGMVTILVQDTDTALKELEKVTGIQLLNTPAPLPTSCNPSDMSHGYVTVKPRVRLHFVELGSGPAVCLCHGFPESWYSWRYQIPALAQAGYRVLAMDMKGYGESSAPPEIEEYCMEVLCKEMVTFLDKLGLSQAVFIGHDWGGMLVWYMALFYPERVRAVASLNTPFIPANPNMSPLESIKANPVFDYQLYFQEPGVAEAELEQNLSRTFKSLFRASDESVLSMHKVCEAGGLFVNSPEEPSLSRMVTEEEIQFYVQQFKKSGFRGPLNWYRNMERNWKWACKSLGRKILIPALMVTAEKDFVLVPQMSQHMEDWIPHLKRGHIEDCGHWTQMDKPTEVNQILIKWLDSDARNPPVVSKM
The experiment in a line: Inhibition of recombinant human sEH, IC50 assay with 4-nitrophenyl-trans-2,3-epoxy-3-phenylpropyl carbonate as substrate. The conditions noted are these: for IC90: 0.24 μM enzyme. Type of assay: biochemical. The protocol:
as §1

[1] abbreviates: Table 5, 0.12 μM enzyme, 5 min preincubation, pH 7.4, 30° C., means ± SD.
[2] abbreviates: Table 5, […] enzyme, 5 min preincubation, pH 7.4, 30° C., means ± SD, read-out: Mouse sEH IC50.
Setting [3] is: Table 5, 5 min preincubation, pH 7.4, 30° C., means ± SD.
Setting [4] is: Table 5, […] enzyme, 5 min preincubation, pH 7.4, 30° C., means ± SD, read-out: Human sEH IC50.
The mark [5] stands for this setting: Tables 17a and b, read-out: IC50 (μM) Mouse sEH.
Setting [6] is: Tables 17a and b, read-out: IC50 (μM) Human sEH.

Consider `CCOC(=O)CCCCCCCCCOC(=O)CCCNC(=O)NC12CC3CC(CC(C3)C1)C2` [Compound 880], for which the results for the 90% effect concentration (IC90) at mouse sEH (setting [1]) and on human sEH (setting [3]) were 260 ± 30 nM and 680 ± 10 nM, respectively. Also, the half-inhibitory concentration (IC50) was 0.05 ± 0.01 µM on mouse sEH (setting [2]) and 0.1 ± 0.01 µM on human sEH (setting [4]).
For `CCOC(=O)CCCCCCCCCCOC(=O)CCCNC(=O)NC12CC3CC(CC(C3)C1)C2` [Compound 881], the IC90 worked out at 350 ± 50 nM on mouse sEH (setting [1]) and 1200 ± 100 nM at human sEH (setting [3]). The figures for the IC50 on mouse sEH (setting [2]) and at human sEH (setting [4]) were 0.05 ± 0.01 µM and 0.1 ± 0.01 µM, respectively.
In the case of `CCOC(=O)CCCCCCCCCCCOC(=O)CCCNC(=O)NC12CC3CC(CC(C3)C1)C2` [Compound 882], the results for the IC90 at mouse sEH (setting [1]) and on human sEH (setting [3]) were 630 ± 40 nM and 1800 ± 200 nM, respectively. Moreover, the results for the IC50 at mouse sEH (setting [2]) and at human sEH (setting [4]) were 0.05 ± 0.01 µM and 0.1 ± 0.01 µM, respectively.
As to `O=C(O)CCCCNC(=O)NC1CCCCC1` [Compound 884], the IC50 came to 0.25 ± 0.02 µM on mouse sEH (Table 1, 0.12 μM enzyme, 5 min preincubation, pH 7.4, 30° C., [S] = 40 μM, means ± SD of three experiments, read-out: IC50 (μM) Mouse sEH) and 2.4 ± 0.1 µM at human sEH (Table 1, […] enzyme, 5 min preincubation, pH 7.4, 30° C., [S] = 40 μM, means ± SD of three experiments, read-out: IC50 (μM) Human sEH).
For the compound `C#CCCCCCCNC(=O)NC12CC3CC(CC(C3)C1)C2` [Compound 900], the values for the IC50 on mouse sEH (setting [5]) and on human sEH (setting [6]) were 0.05 ± 0.01 µM and 0.1 ± 0.01 µM, respectively.
On the same counts, the results for `CS(=O)(=O)NCCCCCCCCCCCCNC(=O)NC12CC3CC(CC(C3)C1)C2` [Compound 901] are 0.07 ± 0.01 µM and 0.1 ± 0.01 µM.
For the compound `O=C(NCCCCCCCCCCCCN[S+]([O-])NC12CC3CC(CC(C3)C1)C2)NC12CC3CC(CC(C3)C1)C2` (stereo not shown) [Compound 902], the IC50 came out at 0.45 ± 0.01 µM on mouse sEH (setting [5]) and 0.44 ± 0.01 µM on human sEH (setting [6]).
For `O=C(NC12CC3CC(CC(C3)C1)C2)C(F)(F)C(F)(F)C(F)(F)C(F)(F)C(F)(F)C(F)(F)C(F)(F)C(F)(F)C(F)(F)C(F)(F)C(F)(F)F` [Compound 903], in that order: 0.1 ± 0.01 µM and 0.01 ± 0.01 µM.
For the compound `CCCCC(CC)OC(=O)C1CCCC(NC(=O)NC23CC4CC(CC(C4)C2)C3)C1` (stereo not shown) [Compound 904], the concentration for half-maximal inhibition (IC50) at mouse sEH (Table 9, established protocols, read-out: IC50 (μM) Mouse sEH) amounted to 0.05 ± 0.01 µM; on human sEH (read-out: IC50 (μM) Human sEH), 0.1 ± 0.01 µM.
On to `CCCCC(CC)OC(=O)CCCNC(=O)NC12CC3CC(CC(C3)C1)C2` (stereo not shown) [Compound 905], for which the 50% inhibitory concentration (IC50) worked out at 0.13 ± 0.01 µM at mouse sEH (setting [5]) and 0.45 ± 0.01 µM at human sEH (setting [6]).
Regarding `CCCCCOC(=O)C1CCCC(NC(=O)NC23CC4CC(CC(C4)C2)C3)C1` (stereo not shown) [Compound 906], the IC50 at mouse sEH (setting [5]) worked out at 0.05 ± 0.01 µM; at human sEH, 0.1 ± 0.01 µM.
On to `CN(C)c1cccc2c(S(=O)(=O)NCCNC(=O)NC34CC5CC(CC(C5)C3)C4)cccc12` [Compound 907], for which the 50% inhibitory concentration (IC50) worked out at 0.4 ± 0.01 µM at mouse sEH (setting [5]) and 0.6 ± 0.01 µM at human sEH (setting [6]).
As to `CCCCC(CC)OCCCCCNC(=O)NC12CC3CC(CC(C3)C1)C2` (stereo not shown) [Compound 910], the IC50 on mouse sEH (setting [5]) is 0.05 ± 0.01 µM; on human sEH (setting [6]), 0.24 ± 0.01 µM.
For `CC(=O)Nc1ccc(CC(=O)NC23CC4CC(CC(C4)C2)C3)cc1` [Compound 912], in that order: 4.1 ± 0.01 µM and 35 ± 0.01 µM.
Take `C#COCCOCCCCCNC(=O)NC12CC3CC(CC(C3)C1)C2` [Compound 913]: the half-maximal inhibitory concentration (IC50) on mouse sEH (Table 7, established protocols, read-out: IC50 (μM) Mouse sEH) stood at 0.05 ± 0.01 µM; on human sEH (Table 7, established protocols, read-out: IC50 (μM) Human sEH) it was 0.1 ± 0.01 µM.
Take `O=C(CCCCCCCCCCCNC(=O)NC12CC3CC(CC(C3)C1)C2)NS(=O)(=O)c1ccccc1` [Compound 914]: the figures for the IC50 on mouse sEH and at human sEH (setting [6]) were 0.05 ± 0.01 µM and 0.1 ± 0.01 µM, respectively.
With `CC(C)=CCCC(C)CCOCCCCCNC(=O)NC12CC3CC(CC(C3)C1)C2` (stereo not shown) [Compound 915], the values for the IC50 on mouse sEH (setting [5]) and at human sEH (setting [6]) were 0.05 ± 0.01 µM and 0.12 ± 0.01 µM, respectively.
